Laboratory results as given in US20060121480A1, “Synergistic compositions for the prevention and treatment of acquired immunodeficiency syndrome” (priority 2002, published 2006).
Read-outs that look alike come from different tables or passages of the source.

How the values were obtained:
HIV-1 301714 (adult) [1] = experiment: HIV-1 P24 antigen in PBMC coculture, continuous drug exposure; format: cell-based
Method: (§1) Viruses: 6 viruses were titrated. The TCID50/ml of each virus isolate was as the follows:
(§2) 512.2 μl of HIV-1 302076 was added into 9487.8 μl R-3 medium. 512.2 μl of HIV-1 302077 was added into 9487.8 μl R-3 medium. 126.3 μl of HIV-1 302143 was added into 9873.7 μl R-3 medium. 1002.4 μl of HIV-1 301714 was added into 8997.6 R-3 medium. 2000 μl of HIV-1m 2054 was added into 8000.0 μl R-3 medium. 4000 μl of HTLV-IIIB was added into 6000 R-3 μl medium. Viruses were diluted to 100 TCID50 virus stock: 2.5 ml of 2000 TCID50/ml was added to 2.5 ml of R-3 medium, this is 100 TCID50 (in 100 μl) stock. PBMC: Peripheral blood mononuclear cells (PBMC) were separated from HI-1-uninfected donor by Ficoll-hypaque density gradient centrifugation. PBMC were grown in RPMI 1640 supplemented with 20% fetal calf serum, 5% IL-2 and 5 μg/ml PHA (R-3 medium).
(§3) The final 3 tubes are added with 100 μPBS. […] The tubes were incubated at 37° C. overnight.
(§4) The cells were washed 3 times in PBS.

HIV-1 2054 (adult) [2] = experiment: as above; format: cell-based
Method: as §1, §2, §3, §4

HTLV-IIIB (lab) [3] = conditions: PBMC
Method: (§5) Viruses: 6 viruses were titrated.
as §2
(§6) The final three tubes are added to 100 μl PBS. […] The final 3 tubes are added with 100 μPBS. […] The final 3 tubes are added to 100 μl PBS. 100 μl of 100 TCID50 virus stock were aliquoted into all 63 tubes. 2×10^6 PBMC was added in 1.8 ml of R-3 medium (total 2.0 ml per tube). The tubes were incubated at 37° C. overnight.
(§7) The cells were washed 3 times in PBS. […] HIV-1 P24 antigen measurement was performed in the supernatant of each coculture well on days 4 and 7.0.5 ml cells (10^6/ml) in R-3 medium were added on day 4.

HIV-1 301714 (adult) [4] = experiment: HIV-1 P24 antigen in PBMC coculture, drug exposure at infection and for 12 hours thereafter; format: cell-based
Method: as §1, §2
(§8) The above step was repeated for 1:156.25, 781.25, 3906.25 and 19531.25 dilutions. Finally, the concentrations used in the experiment were 2, 0.4, 0.08, 0.016, 0.0032, 0.00064 μg/ml.
(§9) The above step was repeated for 1:625, 1:3125, 1:15625, 1:78125 and 390625 dilution. Finally, the concentrations used in the experiment were 1.
as §3, §4

HIV-1 2054 (adult) [5] = experiment: as above; format: cell-based
Method: as §1, §2, §8, §9, §3, §4

HIV-1 302076 (pediatric) [6] = conditions: PBMC
Method: as §5, §2, §6, §7

HIV-1 302077 (pediatric) [7] = conditions: PBMC
Method: as §5, §2, §6, §7

HIV-1 302143 (pediatric) [8] = conditions: PBMC
Method: as §5, §2, §6, §7

HIV-1 302076 (pediatric) [9] = conditions: PBMC; remark: listed apart in the source
Method: as §5, §2, §8
(§10) The above step was repeated for 1:625, 1:3125, 1:15625, 1:78125 and 390625 dilution. Finally, the concentrations used in the experiment were 1. 0.2.0.04, 0.008, 0.0016, 0.00032 μg/ml.
as §6, §7

HIV-1 302077 (pediatric) [10] = conditions: PBMC; remark: listed apart in the source
Method: as §5, §2, §8, §10, §6, §7

HIV-1 302143 (pediatric) [11] = conditions: PBMC; remark: listed apart in the source
Method: as §5, §2, §8, §10, §6, §7

HTLV-IIIB (lab) [12] = conditions: PBMC; remark: listed apart in the source
Method: as §5, §2, §8, §10, §6, §7

[13] = HIV-1 301714, day 4, continuous drug exposure
[14] = HIV-1 301714, day 7, continuous drug exposure
[15] = HIV-1 2054, day 4, continuous drug exposure
[16] = HIV-1 2054, day 7, continuous drug exposure
[17] = day 4, continuous drug exposure
[18] = day 7, continuous drug exposure
[19] = HIV-1 301714, day 4, drugs removed after 12 hours
[20] = HIV-1 301714, day 7, drugs removed after 12 hours
[21] = HIV-1 2054, day 4, drugs removed after 12 hours
[22] = HIV-1 2054, day 7, drugs removed after 12 hours

Row | Substance | IC50 (HIV-1 301714 (adult) [1]; [13]) [µg/mL] | IC50 (HIV-1 301714 (adult) [1]; [14]) [µg/mL] | IC50 (HIV-1 2054 (adult) [2]; [15]) [µg/mL] | IC50 (HIV-1 2054 (adult) [2]; [16]) [µg/mL] | IC50 (HTLV-IIIB (lab) [3]; [17]) [µg/mL] | IC50 (HTLV-IIIB (lab) [3]; [18]) [µg/mL] | IC50 (HIV-1 301714 (adult) [4]; [19]) [µg/mL] | IC50 (HIV-1 301714 (adult) [4]; [20]) [µg/mL] | IC50 (HIV-1 2054 (adult) [5]; [21]) [µg/mL] | IC50 (HIV-1 2054 (adult) [5]; [22]) [µg/mL] | other results
1 | enfuvirtide | 0.049 | 0.040 | 0.019 | 0.16 | 0.017 | 0.013 | 0.20 | 0.050 | 0.039 | 0.11 | –
2 | 5A8: humanized monoclonal antibody to CD4 | 0.14 | 0.30 | 0.041 | 0.017 | 0.19 | 0.16 | 0.70 | 1.82 | 0.070 | 0.13 | IC50 (HIV-1 302076 (pediatric) [6]; HIV-1 302076, day 4, continuous drug exposure): 0.10 µg/mL; IC50 (HIV-1 302076 (pediatric) [6]; HIV-1 302076, day 7, continuous drug exposure): 0.028 µg/mL; IC50 (HIV-1 302077 (pediatric) [7]; HIV-1 302077, day 4, continuous drug exposure): 0.14 µg/mL; IC50 (HIV-1 302077 (pediatric) [7]; HIV-1 302077, day 7, continuous drug exposure): 0.067 µg/mL; IC50 (HIV-1 302143 (pediatric) [8]; HIV-1 302143, day 4, continuous drug exposure): 0.038 µg/mL; IC50 (HIV-1 302143 (pediatric) [8]; HIV-1 302143, day 7, continuous drug exposure): 0.022 µg/mL; IC50 (HIV-1 302076 (pediatric) [9]; HIV-1 302076, day 4, drugs removed after 12 hours): 0.15 µg/mL; IC50 (HIV-1 302076 (pediatric) [9]; HIV-1 302076, day 7, drugs removed after 12 hours): 0.65 µg/mL; IC50 (HIV-1 302077 (pediatric) [10]; HIV-1 302077, day 4, drugs removed after 12 hours): 0.17 µg/mL; IC50 (HIV-1 302077 (pediatric) [10]; HIV-1 302077, day 7, drugs removed after 12 hours): 0.50 µg/mL; IC50 (HIV-1 302143 (pediatric) [11]; HIV-1 302143, day 4, drugs removed after 12 hours): 0.97 µg/mL; IC50 (HIV-1 302143 (pediatric) [11]; HIV-1 302143, day 7, drugs removed after 12 hours): >2.0 µg/mL; IC50 (HTLV-IIIB (lab) [12]; day 4, drugs removed after 12 hours): 0.44 µg/mL; IC50 (HTLV-IIIB (lab) [12]; day 7, drugs removed after 12 hours): 1.30 µg/mL
